The values that follow are results of earlier work, collected in patent US20130203688A1, “SUGAR PLANT DERIVED BY-PRODUCTS AND METHODS OF PRODUCTION THEREOF” (FÉDÉRATION DES PRODUCTEURS ACÉRI-COLES DU QUÉBEC, priority 2010, published 2013).

Consider `COc1ccc(C2OC(=O)C(O)(Cc3ccc(OC4OC(C)C(O)C(O)C4O)c(OC)c3)C2CO)cc1OC` (centres unmarked) [compound 7], for which the “Properties: α-glucosidase-inhibiting action” value in the series with α-glucosidase is “α- glucosidase- inhibiting”. In addition, the “Properties: human HL-60 proliferation-inhibiting action” value in the series on human HL-60 is on record as “human HL-60 proliferation- inhibiting”.
With `COc1cc(C2c3c(cc(OC)c(O)c3OC)CC(CO)C2CO)cc(OC)c1O` (centres unmarked) [compound 8, Lyoniresinol], the “Properties: tyrosinase inhibitory” value with tyrosinase is recorded as “tyrosinase inhibitory”.
As to `COc1cc(/C=C/CO)cc(OC)c1O` [compound 10, Syringenin], in the series on TNFα secretion, the “Properties: TNFα-secretion inhibitor” value is on record as “TNFα- secretion inhibitor”.
Take `Oc1ccccc1O` [compound 11, 1,2-Benzenediol(catechol)]: the “Properties: tyrosinase inhibitory” value in the series on tyrosinase is “inhibit the activity of tyrosinase”. Further, in the series with synthesis of melanin, the “Properties: inhibit the synthesis of melanin” value is on record as “inhibit the synthesis of melanin”. In addition, the “Properties: antibacterial” value in the series on bacteria is “Antibacterial”.
Take `COc1cc(C2Oc3c(OC)cc(CCCO)cc3C2CO)ccc1O` (centres unmarked) [compound 15]: the “Properties: antitumor” value in the series on tumor is “Antitumor/”.
